From ChEMBL document CHEMBL5344478, “Cytochrome bd oxidase: an emerging anti-tubercular drug target” (RSC Med Chem, 2024) come the findings set out here.

Converted amounts (≈) assume the structure as drawn.

For series [1], the system named is Mycobacterium tuberculosis. The experiment in a line: Antibacterial activity against Mycobacterium tuberculosis H37Rv assessed as reduction in bacterial growth. It is filed as functional, organism-based.
Series [2] relates to Mycobacterium tuberculosis. Put plainly: Antibacterial activity against Mycobacterium tuberculosis clinical isolate N0145 assessed as reduction in bacterial growth. It is filed as functional, organism-based.
Series [3] concerns Mycobacterium tuberculosis. Put plainly: Antitubercular activity against Mycobacterium tuberculosis H37Rv assessed as inhibition of bacterial growth. It is filed as functional.
Series [4] concerns Mycobacterium tuberculosis. Put plainly: Antibacterial activity against Mycobacterium tuberculosis clinical isolate N0145 assessed as reduction in ATP level. The series is classed as functional, organism-based.
The subject of series [5] is Mycobacterium tuberculosis. The experiment in a line: Inhibition of wild type Mycobacterium tuberculosis mc2 6020 cytochrome bd oxidase assessed as inhibition of oxygen consumption rate at 10 to 25 uM measured after 5 days by Methylene blue dye based assay. The following applies: dose 10-25 µM, time 5.0 day.
Series [6] relates to Mycobacterium tuberculosis. The experiment in a line: Antibacterial activity against Mycobacterium tuberculosis H37Rv cytochrome bd oxidase assessed as reduction in total cellular ATP level. The series is classed as functional, organism-based.
For series [7], the system named is Mycobacterium tuberculosis. Put plainly: Antitubercular activity against XDR Mycobacterium tuberculosis assessed as bacterial growth inhibition. It is filed as functional.
Series [8] can be described thus: Oral bioavailability in mouse. It is filed as ADME, organism-based. Conditions: in vivo.
Series [9] can be described thus: Half life in mouse. Conditions: in vivo. The series is classed as ADME, organism-based.
The subject of series [10] is Mycobacterium tuberculosis. The experiment in a line: Antibacterial activity against Mycobacterium tuberculosis H37Rv mc2 6206 assessed as inhibition of bacterial growth by resazurin dye based assay. The series is classed as functional. For orientation: Alamar Blue is a resazurin reagent that responds to reducing activity.
For series [11], the system named is Mycobacterium tuberculosis. Put plainly: Antimycobacterial activity against Mycobacterium tuberculosis Rv0678. The series is classed as functional.
Series [12] has as its system Mycobacterium tuberculosis. The experiment in a line: Antibacterial activity against Mycobacterium tuberculosis H37Rv assessed as reduction in bacterial growth incubated for 7 days by broth dilution method. It is filed as functional. Conditions: 168 h, time 7 day. For orientation: Dilution methods test growth across graded concentrations, often in twofold steps.
For series [13], the system named is Mycobacterium tuberculosis. The experiment in a line: Antibacterial activity against Mycobacterium tuberculosis H37Rv assessed as inhibition of bacterial growth. It is filed as functional.

On to `Fc1ccc2c(NCCc3ccc(OC(F)(F)F)cc3)ncnc2c1`, for which the IC50 (in general, the concentration at which inhibition is half-maximal) turned out to be 7.6 µM in series [1] and 0.2 µM in series [2].
With `CCc1nc2ccc(Cl)cn2c1C(=O)NCc1ccc(N2CCC(c3ccc(OC(F)(F)F)cc3)CC2)cc1` [TELACEBEC], the MIC (in general, the least concentration at which growth counts as inhibited) in series [3] is 0.0015 µM. For the same compound, in [4], the IC50 is 0.1 µM. In addition, the inhibition (as a rule, the drop in the measured response relative to a control, in per cent) in [5] stood at 60%.
Take `FC(F)(F)c1ccc(Oc2ccc(Nc3ncnc4ccccc34)cc2)cc1`: in series [6], the half-inhibitory concentration (IC50) came out at 2.8 µM. Also, the MIC in [7] was no more than 1 µM. Moreover, the bioavailability (usually the share of a dose that reaches the circulation, judged against a reference dose that is usually intravenous) in series [8] stood at 58%. For the same compound, the half-life (usually the time in which the quantity being followed falls by half) in series [9] was 64 h.
With `CC(C)(C)c1ccc(CCNc2ncnc3ccsc23)cc1`, the IC50 in series [1] was 5.8 µM; in series [2], 8.5 µM.
For `CC(C)(C)c1ccc(CCNc2ncnc3ccccc23)cc1`, in that order: 5.8 µM and 0.1 µM.
`NC(=O)NC(=O)c1nc(-c2cc3ccccc3o2)c(N)nc1N`: the MIC in series [10] was 9 µM (≈ 2.81 µg/mL); in [11] it was 12 µM (≈ 3.75 µg/mL); in series [12] it was 4 µM (≈ 1.25 µg/mL).
Regarding `CC(C)=CCC/C(C)=C/CC/C(C)=C/Cc1c(C)[nH]c2ccccc2c1=O` [AURACHIN D], the MIC in [3] and in series [13] was greater than 100 µg/mL throughout. For the same compound, the inhibition in series [5] turned out to be 60%.
